Experimental data from patent US8946266B2, “Substituted triazole and imidazole derivatives as gamma secretase modulators” (Janssen Pharmaceuticals, Inc., priority 2009, dated 2015).

Columns and labels:
Aβtotal [1] = experiment: In vivo efficacy, Method 2: brain soluble Aβtotal lowering 4 h after a single oral dose, ELISA (Table 4b); set-up: species or system mouse; details: dose 30 mg/kg oral dosing
Excerpt: (§1) To determine whether acute administration of an Aβ42 lowering agent would reduce Aβ42 levels in vivo, non-transgenic rodents, e.g. mice or rats were used. Animals treated with the Aβ42 lowering agent were examined and compared to those untreated or treated with vehicle and brain levels of soluble Aβ42 and total Aβ were quantitated by standard techniques, for example, using ELISA. Treatment periods varied from hours (h) to days and were adjusted based on the results of the Aβ42 lowering once a time course of onset of effect could be established.
(§2) A typical protocol for measuring Aβ42 lowering in vivo is shown but it is only one of many variations that could be used to optimize the levels of detectable Aβ. For example, Aβ42 lowering compounds were formulated in 20% of Captisol® (a sulfobutyl ether of β-cyclodextrin) in water or 20% hydroxypropyl β cyclodextrin. The Aβ42 lowering agents were administered as a single oral dose or by any acceptable route of administration to overnight fasted animals. After 4 h, the animals were sacrificed and Aβ42 levels were analysed.
(§3) Blood was collected by decapitation and exsanguinations in EDTA-treated collection tubes. Blood was centrifuged at 1900 g for 10 minutes (min) at 4° C. and the plasma recovered and flash frozen for later analysis. The brain was removed from the cranium and hindbrain. The cerebellum was removed and the left and right hemisphere were separated. The left hemisphere was stored at −18° C. for quantitative analysis of test compound levels. The right hemisphere was rinsed with phosphate-buffered saline (PBS) buffer and immediately frozen on dry ice and stored at −80° C. until homogenization for biochemical assays.
(§4) Mouse brains from non-transgenic animals were resuspended in 8 volumes of 0.4% DEA (diethylamine)/50 mM NaCl containing protease inhibitors (Roche-11873580001 or 04693159001) per gram of tissue, e.g. for 0.158 g brain, add 1.264 ml of 0.4% DEA. All samples were homogenized in the FastPrep-24 system (MP Biomedicals) using lysing matrix D (MPBio #6913-100) at 6 m/s for 20 seconds. Homogenates were centrifuged at 221.300×g for 50 min. The resulting high speed supernatants were then transferred to fresh eppendorf tubes. Nine parts of supernatant were neutralized with 1 part 0.5 M Tris-HCl pH 6.8 and used to quantify Aβtotal and Aβ42.
(§5) To quantify the amount of Aβtotal and Aβ42 in the soluble fraction of the brain homogenates, Enzyme-Linked-Immunosorbent-Assays were used. Briefly, the standards (a dilution of synthetic Aβ1-40 and Aβ1-42, Bachem) were prepared in 1.5 ml Eppendorf tube in Ultraculture, with final concentrations ranging from 10000 to 0.3 pg/ml. The samples and standards were co-incubated with HRPO-labelled N-terminal antibody for Aβ42 detection and with the biotinylated mid-domain antibody 4G8 for Aβtotal detection. 50 μl of conjugate/sample or conjugate/standards mixtures were then added to the antibody-coated plate (the capture antibodies selectively recognize the C-terminal end of Aβ42, antibody JRF/cAβ42/26, for Aβ42 detection and the N-terminus of Aβ, antibody JRF/rAβ/2, for Aβtotal detection). The plate was allowed to incubate overnight at 4° C. in order to allow formation of the antibody-amyloid complex. Following this incubation and subsequent wash steps the ELISA for Aβ42 quantification was finished by addition of Quanta Blu fluorogenic peroxidase substrate according to the manufacturer's instructions (Pierce Corp., Rockford, Ill.). A reading was performed after 10 to 15 min (excitation 320/emission 420).
For Aβtotal detection, a Streptavidine-Peroxidase-Conjugate was added, followed 60 min later by an additional wash step and addition of Quanta Blu fluorogenic peroxidase substrate according to the manufacturer's instructions (Pierce Corp., Rockford, Ill.). A reading was performed after 10 to 15 min (excitation 320 nm/emission 420 nm).
(§6) The results are shown in Table 4b (dose 30 mg/kg oral dosing): […]

Aβtotal [2] = experiment: γ-secretase-modulating activity, Method 2: Aβtotal Alphalisa in supernatant of SKNBE2 cells carrying APP 695-wild type (Table 3b); type: cell-based; details: overnight, read-out: IC50 Aβtot
Procedure, shortened: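 Secreted Aβtotal was quantified by AlphaLISA pairing an N-terminal antibody (JRF/AβN/25) with biotinylated mid-region 4G8. Wild-type APP 695 SKNBE2 cells received serially varied compound overnight at 37 °C; IC50 came from a 4-parameter nonlinear regression of percent of control against log dose.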

Aβ42 [3] = experiment: γ-secretase-modulating activity, Method 2: Aβ42 Alphalisa in supernatant of SKNBE2 cells carrying APP 695-wild type (Table 3b); type: cell-based; details: overnight
Procedure, shortened: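 Aβ42 in the supernatant was quantified by AlphaLISA sandwich (JRF/cAβ42/26 with JRF/AβN/25). Cells were wild-type APP695 SKNBE2, exposed to compound overnight at 37° C., 5% CO2. Data were normalised to untreated maximum and fitted with a four-parameter curve to give IC50.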

Aβ42 [4] = experiment: In vivo efficacy, Method 2: brain soluble Aβ42 lowering 4 h after a single oral dose, ELISA (Table 4b); set-up: species or system mouse; details: dose 30 mg/kg oral dosing
Excerpt: as §1, §2, §3, §4, §5
In this model at least 20% Aβ42 lowering compared to untreated animals would be advantageous.
as §6

Row | Structure (SMILES) | IC50 (Aβtotal [2]) [nM] | IC50 (Aβ42 [3]) [nM] | Aβtotal (% Ctrl) _Mean (Aβtotal [1]) [% Ctrl] | Aβ42 (% Ctrl) _Mean (Aβ42 [4]) [% Ctrl] | Aβtotal (% Ctrl) _Mean (Aβtotal [1]; 30 mg/kg) [% Ctrl] | Aβ42 (% Ctrl) _Mean (Aβ42 [4]; 30 mg/kg) [% Ctrl]
1 | COc1cc(-c2nc(Nc3cccc(OC(F)(F)F)c3)n(C)n2)ccc1-n1cnc(C)c1 [Compound 181] | 5750 | 25 | 9 | 28 | – | –
2 | COc1nc(-c2nc(Nc3cc(Cl)ccc3F)n(C)n2)ccc1-n1cnc(C)c1 [Compound 117] | > 10000 | 60 | 17 | 44 | – | –
3 | COc1cc(-c2nc(Nc3cc([S+](C)[O-])ccc3F)n(C)n2)ccc1-n1cnc(C)c1 (racemic) [Compound 330] | 68 | 603 | −2 | −9 | – | –
4 | COc1cc(-c2nc(Nc3cc(C(F)(F)F)cc(OC)c3F)n(C)n2)ccc1-n1cnc(C)c1 [Compound 203] | > 10000 | 10 | 6 | 54 | – | –
5 | COc1cc(-c2nc(Nc3cc(C(F)(F)F)ccc3F)n(CC(C)(C)O)n2)ccc1-n1cnc(C)c1 [Compound 136] | 3020 | 76 | 1 | −14 | – | –
6 | COc1cc(-c2nc(Nc3cc(OC(F)(F)F)ccc3F)n(C)n2)ccc1-n1cnc(C)c1 [Compound 185] | > 10000 | 17 | 9 | 40 | – | –
7 | COc1nc(-c2nc(Nc3cccc(F)c3Cl)n(C)n2)ccc1-n1cnc(C)c1 [Compound 302] | > 10000 | 71 | −3 | 31 | – | –
8 | COc1cc(-c2nc(Nc3cccc(C(F)(F)F)c3F)n(C)n2)ccc1-n1cnc(C)c1 [Compound 148] | > 10000 | 23 | 12 | 37 | – | –
9 | COc1nc(-c2nc(Nc3cccc(Cl)c3)n(C)n2)ccc1-n1cnc(C)c1 [Compound 100] | > 10000 | 28 | −4 | 12 | – | –
10 | COc1cc(-c2nc(Nc3cc(C(F)(F)F)ccc3F)n(C)n2)ccc1-n1cnc(C)c1 [Compound 162] | 3630 | 11 | 2 | 35 | – | –
11 | COc1cc(-c2nc(Nc3cc(N(C)C)ccc3F)n(C)n2)ccc1-n1cnc(C)c1 [Compound 180] | > 10000 | 22 | 10 | 51 | – | –
12 | COc1nc(-c2nc(N3CCCC(c4ccccc4)C3)n(C(C)C)n2)ccc1-n1cnc(C)c1.Cl (racemic) [Compound 80] | 10000 | 56 | −19 | −20 | – | –
13 | COc1ccc(C(F)(F)F)cc1Nc1nc(-c2ccc(-n3cnc(C)c3)c(OC)c2)nn1C [Compound 217] | 6460 | 26 | −4 | 35 | – | –
14 | COc1ccc(C)c(Nc2nc(-c3ccc(-n4cnc(C)c4)c(OC)c3)nn2C)c1 [Compound 199] | > 10000 | 16 | 5 | 39 | – | –
15 | Cc1cn(-c2ccc(-c3nc(Nc4cc(C(F)(F)F)ccc4F)n(C)n3)cc2C#N)cn1 [Compound 322] | > 15000 | 36 | −4 | −5 | – | –
16 | COc1nc(-c2nc(Nc3ccc(F)cc3C(F)(F)F)n(C)n2)ccc1-n1cnc(C)c1 [Compound 158] | > 10000 | 40 | 3 | 44 | – | –

More lines, main results first:

Row | IC50 (Aβtotal [2]) [nM] | IC50 (Aβ42 [3]) [nM] | Structure (SMILES) | Aβtotal (% Ctrl) _Mean (Aβtotal [1]) [% Ctrl] | Aβ42 (% Ctrl) _Mean (Aβ42 [4]) [% Ctrl] | Aβtotal (% Ctrl) _Mean (Aβtotal [1]; 30 mg/kg) [% Ctrl] | Aβ42 (% Ctrl) _Mean (Aβ42 [4]; 30 mg/kg) [% Ctrl]
17 | > 10000 | 56 | COc1cc(-c2nc(Nc3cccc(F)c3Cl)n(C)n2)ccc1-n1cnc(C)c1 [Compound 114] | 9 | 53 | – | –
18 | > 10000 | 40 | COc1cc(-c2nc(Nc3cc(Br)ccc3F)n(C)n2)ccc1-n1cnc(C)c1 [Compound 303] | 23 | 33 | – | –
19 | > 10000 | 15 | COc1cc(-c2nc3n(n2)CCCC3c2cc(C(F)(F)F)ccc2C)ccc1-n1cnc(C)c1 (stereo not drawn) [Compound 264] | 8 | 49 | – | –
20 | > 10000 | 25 | COc1cc(-c2nc(Nc3cccc(Cl)c3C)n(C)n2)ccc1-n1cnc(C)c1 [Compound 129] | 9 | 56 | – | –
21 | 9330 | 32 | COc1cc(-c2nc3n(n2)CCC[C@H]3c2ccccc2Cl)ccc1-n1cnc(C)c1 [Compound 255] | 11 | 21 | – | –
22 | > 10000 | 19 | COc1cc(-c2nc3n(n2)CCCC3c2cc(OC(F)(F)F)ccc2F)ccc1-n1cnc(C)c1 (stereo not drawn) [Compound 265] | 22 | 55 | – | –
23 | > 15000 | 457 | COc1cc(-c2nc3n(n2)CCC[C@@H]3c2ccccc2C(F)(F)F)ccc1-n1cnc(C)c1 [Compound 260] | −9 | −1 | – | –
24 | > 15000 | 24 | COc1cc(-c2nc3n(n2)CCC[C@H]3c2ccccc2C(F)(F)F)ccc1-n1cnc(C)c1 [Compound 261] | 6 | 46 | – | –
25 | > 10000 | 13 | COc1cc(-c2nc(Nc3cc(C)ccc3C)n(C)n2)ccc1-n1cnc(C)c1 [Compound 198] | 6 | 55 | – | –
26 | > 10000 | 29 | COc1nc(-c2nc3n(n2)CCC[C@H]3c2ccccc2C(F)(F)F)ccc1-n1cnc(C)c1 [Compound 263] | 12 | 62 | – | –
27 | > 10000 | 71 | COc1cc(-c2nc3n(n2)CCOC3c2ccccc2C(F)(F)F)ccc1-n1cnc(C)c1 (stereo not drawn) [Compound 306] | – | – | −2 | 22
28 | > 10000 | 13 | COc1cc(-c2nc(Nc3cc(Cl)ccc3Cl)n(C)n2)ccc1-n1cnc(C)c1 [Compound 111] | 15 | 33 | – | –
29 | > 10000 | 58 | COc1cc(-c2nc(Nc3cc(Cl)ccc3F)n(C)n2)ccc1-n1cnc(C)c1 [Compound 123] | 31 | 36 | – | –
30 | > 10000 | 15 | COc1nc(-c2nc3n(n2)CCCC3c2cc(C(F)(F)F)ccc2C)ccc1-n1cnc(C)c1 (stereo not drawn) [Compound 343] | 18 | 64 | – | –
